Experimental data as given in US8993254B2, “Methods for evaluating risk of mother's milk or food inducing an onset of atopic dermatitis, and mother's milk or food with reduced risk of inducing an onset of atopic dermatitis” (Saitama Medical University, priority 2009, dated 2015).

Key:
THP-1 cells = assay: Measurement of intracellular cAMP concentration in PMA-treated THP-1 cells; format: cell-based; conditions: THP-1 cells treated with PMA, co-incubated with 10 to 30 μg/ml (13 to 39 μM) of coenzyme A
Method: In a humid incubator under conditions of 37° C. and 5% CO2, THP-1 cells were cultured in an RPMI1640 medium supplemented with 10% fetal bovine serum, 1% penicillin and streptomycin, and 1% L-glutamine. The THP-1 cells were exposed to 50 ng/ml of PMA (phorbol 12-myristate 13-acetate) for 48 hours, followed by washing. Then, the cells were cultured at 37° C. in the presence of 1 mM 3-isobutyl-1-methyl-xanthine. After 10 minutes, the cells were stimulated with 30% mother's milk (AD: n=55, non-AD: n=55) for 10 minutes, and lysed with cell lysis buffer (Molecular Devices). In some experiments, THP-1 cells treated with 50 ng/ml of PMA for 48 hours were exposed to 10 μM prostaglandin E2 (PGE2). The intracellular cAMP level was measured using CatchPoint™ cyclicAMP fluorescent assay kit (Molecular Devices LLC) in accordance with the maker instruction. In some experiments, delta (Δ)-cAMP was calculated by subtracting the cAMP concentration in THP-1 stimulated with PMA without adjuvant stimulation from the cAMP concentration in THP-1 stimulated with PMA with adjuvant stimulation.

[1] = tested on: Human monocyte-derived dendritic cells (Mo-DCs); assay: Analysis of T cell-differentiation using dendritic cells (mixed lymphocyte reaction, IFNγ and IL-5 ELISA); format: cell-based; conditions: Mo-DCs pretreated with 1 μg/ml of coenzyme A (FIG. 3B)
Method: Human Mo-DCs and CD45RA-positive naive T cells (purity of more than 99%) were prepared according to the previous report (Takagi, R. et al., J Immunol 181: 186-189, 2008).
The immature Mo-DCs were stimulated with 1 to 10% of a liquid fraction of mother's milk or 0 to 10 μg/ml of coenzyme A. Two days after culturing with the liquid fraction or coenzyme A, to induce a mixed lymphocyte reaction (MLR), the cell component was further cultured together with HLA-DR-nonshared allogenic CD4-positive naive T cells in an RPMI1640 medium supplemented with 10% human serum for 6 to 8 days. Then, the T cells were restimulated with an anti-CD3 antibody and an anti-CD28 antibody (BD Pharmingen Inc.). After 48 hours, the culture supernatant was collected to analyze IFNγ and IL-5 by ELISA using IFNγ and IL-5 ELISA kits (R&D systems, Inc.).

SJL/J mice = assay: Mixed lymphocyte reaction using CD3ε-negative cells harvested from mice to which coenzyme A had been orally administered; format: in vivo
Method: SJL/J mice (H-2^s) and Nc/Nga mice (non H-2^s) were purchased from Charles River Inc. and Japan SLC, Inc., respectively. 50 μg/ml of coenzyme A was orally administered to the SJL/J mice. Two days later, CD3ε-negative cells were obtained from mesenteric lymph node cells using “[…]” (Miltenyi Biotec Inc.). On the same day, CD62L-positive naive CD4-positive T cells were obtained from the spleens of the Nc/Nga mice using “CD4^+ T cell isolation kit” and “CD62L^+ T cell isolation kit” (Miltenyi Biotec Inc.). Then, 1×10^4 CD3ε-negative cells and 1×10^5 allogenic CD62L-positive naive CD4-positive T cells were co-cultured in a 96-well flat-bottomed culture plate. A mixed lymphocyte reaction (MLR) was induced in an RPMI1640 medium supplemented with 10% FCS for 7 days. Next, the T cells were restimulated with an anti-CD3 antibody and an anti-CD28 antibody (Biolegends, Inc.). The culture supernatant were harvested 16 hours later, and analyzed for IFNγ, IL-4, and
IL-5 using IFNγ, IL-4 and IL-5 ELISA kits (R&D systems, Inc.).
Coenzyme A-containing drinking water (10 to 20 μg/kg/day) was orally administered to mice. […] cells were isolated from the mesenteric lymph node 2 days after the coenzyme A administration, and co-cultured with allogenic CD62L-positive naive CD4-positive T cells.

[2] = oral, drinking water 10 to 20 μg/kg/day, mesenteric lymph node cells isolated 2 days after administration (FIG. 4A)
[3] = treated mice, oral 10 to 20 μg/kg/day (FIG. 4B)

SMILES: CC(C)(COP(=O)(O)OP(=O)(O)OC[C@H]1O[C@@H](n2cnc3c(N)ncnc32)[C@H](O)[C@@H]1OP(=O)(O)O)[C@@H](O)C(=O)NCCC(=O)NCCS [coenzyme A]
- intracellular cAMP (THP-1 cells): elevated
- differentiation of allogenic naive CD4-positive T cells into Th2 cells [1]: differentiated into Th2 cells
- IFNγ production in T cells (MLR) (SJL/J mice; [2]): No statistically significant difference
- IL-4 production in T cells (MLR) (SJL/J mice; [2]): significantly induced
- IL-5 production in T cells (MLR) (SJL/J mice; [2]): significantly induced
- IL-4/IFNγ ratio (SJL/J mice; [3]): significantly high
- IL-5/IFN ratio (SJL/J mice; [3]): significantly high
